# Laboratory results as given in ChEMBL document CHEMBL1201862, “PubChem BioAssay data set” (2004).
# Where “and” joins values, the source holds several entries; their conditions need not be identical. Equal values may be shown once. Calls of active or inactive are those of the source.
# Columns and labels:
# Cytochrome P450 3A4 [1] = molecular target: T1, Cytochrome P450 3A4 (Homo sapiens, UniProt P08684)
# Cytochrome P450 2C9 = Cytochrome P450 2C9 (Homo sapiens, UniProt P11712)
# [2] = molecular target: T2, Carboxy-terminal domain RNA polymerase II polypeptide A small phosphatase 1 (Homo sapiens, UniProt Q9GZU7); test: CTDSP1 inhibitors, concentration-response, biochemical, absorbance readout, ultra-high-throughput screen actives (AID 540297); type: functional
# T2 sequence (Q9GZU7 whole entry): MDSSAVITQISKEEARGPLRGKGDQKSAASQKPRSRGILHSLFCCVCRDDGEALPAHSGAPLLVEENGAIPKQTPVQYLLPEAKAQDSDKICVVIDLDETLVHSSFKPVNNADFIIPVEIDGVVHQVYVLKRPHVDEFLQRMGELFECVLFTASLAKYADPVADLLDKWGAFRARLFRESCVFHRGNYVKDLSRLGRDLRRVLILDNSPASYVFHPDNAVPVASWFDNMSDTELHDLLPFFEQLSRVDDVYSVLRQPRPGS
# [3] = molecular target: Heat shock protein HSP 90-alpha (Homo sapiens, UniProt P07900); type: functional, organism-based
# [4] = NIH3T3 cell viability loss – ATP luminescence, mouse fibroblasts, counter-screen, dose response (AID 2010); type: functional, cell-based;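 also: cells exposed to compound for about 90 hours before reading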
# [5] = Trypanosoma cruzi growth suppression in host cells – NIH3T3 host cells, beta-gal luminescence, confirmation (AID 2044); type: functional, cell-based;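 also: intracellular parasites grown in NIH/3T3 mouse fibroblasts as host cells; luminescent beta-galactosidase reporter signal from transgenic T. cruzi replicating inside host cells; inhibitors lower the luminescence signal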
# [6] = viability loss in THP-1 monocytes – THP-1 cells, cytotoxicity control for Vif-APOBEC3G degradation inhibitor project, dose response (AID 1117359); type: functional; conditions: THP-1
# [7] = loss of viability in HepG2 cells – cell-based, CellTiter-Glo, cherry-picked, cytotoxicity control for Shn3 inhibitor project, dose response (AID 624134); type: functional
# [8] = reduction of Shn3 3'UTR-driven luciferase in osteoblasts – cell-based, Clone20 osteoblasts, firefly luciferase, cherry-picked, dose response (AID 624132); type: functional;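 also: firefly luciferase luminescence from reporter carrying the Shn3 3'UTR in osteoblasts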
# [9] = molecular target: T3, High affinity choline transporter 1 (Homo sapiens, UniProt Q9GZV3); test: human choline transporter blockers, potency – cell-based, 5-point CRC, membrane potential dye, dose response (AID 504840); type: functional
# T3 sequence (Q9GZV3 whole entry): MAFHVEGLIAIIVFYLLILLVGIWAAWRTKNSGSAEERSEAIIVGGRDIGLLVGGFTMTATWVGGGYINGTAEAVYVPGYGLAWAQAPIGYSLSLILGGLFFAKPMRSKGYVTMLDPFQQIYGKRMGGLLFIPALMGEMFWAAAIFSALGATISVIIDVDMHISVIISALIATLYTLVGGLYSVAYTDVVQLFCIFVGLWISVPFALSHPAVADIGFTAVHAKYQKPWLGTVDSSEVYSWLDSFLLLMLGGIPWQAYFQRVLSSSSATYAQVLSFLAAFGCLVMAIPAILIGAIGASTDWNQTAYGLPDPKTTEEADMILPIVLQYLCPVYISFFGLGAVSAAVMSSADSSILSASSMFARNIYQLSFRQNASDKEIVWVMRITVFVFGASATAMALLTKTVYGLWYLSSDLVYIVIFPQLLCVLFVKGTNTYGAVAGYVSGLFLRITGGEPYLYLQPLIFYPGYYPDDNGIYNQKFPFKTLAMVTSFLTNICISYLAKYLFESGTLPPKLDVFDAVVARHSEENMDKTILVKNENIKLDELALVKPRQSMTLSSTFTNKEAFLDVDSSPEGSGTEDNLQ
# [10] = molecular target: T4, Ubiquitin-conjugating enzyme E2 N (Homo sapiens, UniProt P61088); type: functional;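 also: Dose-response confirmation in a TR-FRET assay detecting UBC13-driven polyubiquitin chain formation, inhibition measured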
# T4 sequence (P61088 whole entry): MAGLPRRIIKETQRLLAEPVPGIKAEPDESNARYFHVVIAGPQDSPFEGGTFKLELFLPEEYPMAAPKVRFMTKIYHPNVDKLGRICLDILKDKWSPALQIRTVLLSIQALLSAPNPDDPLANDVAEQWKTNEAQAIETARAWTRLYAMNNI
# [11] = non-specific 3'UTR reporter inhibition in Clone20-Shn3RL – cell-based, Renilla luciferase, cherry-picked, counter-screen for Shn3 inhibitor project, dose response (AID 624133); type: functional
# HEK293 = test: EBV LMP1 TES2 canonical NF-kB signalling blockers – cell-based, HEK293, luciferase, cherry-pick, dose response (AID 588343); type: functional; conditions: Homo sapiens
# [12] = molecular target: Voltage-gated inwardly rectifying potassium channel KCNH2 (Homo sapiens, UniProt Q12809); conditions: Potency;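 also: confirmatory quantitative high-throughput screen measuring inhibition of hERG channel activity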
# [13] = Luminescence Cell-Based Dose Retest to Confirm Inhibitors of Cancer Stem Cells. [Related pubchem assays (depositor defined):AID2717, AID2721]; type: functional; conditions: Homo sapiens
# [14] = P. falciparum Dd2 growth inhibitors, dose response, SYBR Green, cherry-picked samples (AID 1159567); type: functional, cell-based
# INS1 = test: INS-1E survival protection against cytokine death – cell-based, luminescence, retest, dose response (AID 449756); type: functional; conditions: Rattus norvegicus;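 also: cell death triggered by IL-1 beta plus TNF-alpha plus IFN-gamma mixture; protective hits raise ATP signal compared with cytokine alone wells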
# [15] = microbe, parasite or virus in culture; type: functional; conditions: Mycobacterium tuberculosis
# Cytochrome P450 3A4 [16] = molecular target: T1, Cytochrome P450 3A4; conditions: Potency
# Vero = test: viability of Vero cells under compound – cytotoxicity control for flavivirus capping enzyme inhibitors (AID 588742); type: functional; conditions: Chlorocebus sabaeus
# Cytochrome P450 2D6 = Cytochrome P450 2D6 (Homo sapiens, UniProt P10635);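 also: CYP2D6 member of a cytochrome P450 panel assay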
# Cytochrome P450 2C19 = Cytochrome P450 2C19 (Homo sapiens, UniProt P33261); test: Cytochrome panel assay with activity outcomes. Panel member name: p450-cyp2c19 Compounds with AC50 equal or less than 10 uM are considered active; type: functional; conditions: read-out: AC50
# Cytochrome P450 1A2 = molecular target: T5, Cytochrome P450 1A2 (Homo sapiens, UniProt P05177);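 also: PubChem cytochrome P450 panel assay, CYP1A2 panel member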
# T5 sequence (P05177 whole entry): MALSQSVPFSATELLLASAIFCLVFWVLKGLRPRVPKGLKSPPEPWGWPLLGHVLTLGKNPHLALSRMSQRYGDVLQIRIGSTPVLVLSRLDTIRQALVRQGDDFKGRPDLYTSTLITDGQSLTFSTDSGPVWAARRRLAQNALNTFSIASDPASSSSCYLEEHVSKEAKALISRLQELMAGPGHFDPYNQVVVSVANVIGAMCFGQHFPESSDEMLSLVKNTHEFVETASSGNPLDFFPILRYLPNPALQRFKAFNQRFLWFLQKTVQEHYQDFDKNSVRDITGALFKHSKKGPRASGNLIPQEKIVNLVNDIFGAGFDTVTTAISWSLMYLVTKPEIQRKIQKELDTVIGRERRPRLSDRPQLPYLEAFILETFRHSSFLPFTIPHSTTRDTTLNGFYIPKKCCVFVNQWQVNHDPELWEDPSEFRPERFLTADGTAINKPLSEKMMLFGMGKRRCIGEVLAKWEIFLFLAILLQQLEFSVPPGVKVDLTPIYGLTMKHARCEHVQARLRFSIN
# T1 sequence (P08684 whole entry): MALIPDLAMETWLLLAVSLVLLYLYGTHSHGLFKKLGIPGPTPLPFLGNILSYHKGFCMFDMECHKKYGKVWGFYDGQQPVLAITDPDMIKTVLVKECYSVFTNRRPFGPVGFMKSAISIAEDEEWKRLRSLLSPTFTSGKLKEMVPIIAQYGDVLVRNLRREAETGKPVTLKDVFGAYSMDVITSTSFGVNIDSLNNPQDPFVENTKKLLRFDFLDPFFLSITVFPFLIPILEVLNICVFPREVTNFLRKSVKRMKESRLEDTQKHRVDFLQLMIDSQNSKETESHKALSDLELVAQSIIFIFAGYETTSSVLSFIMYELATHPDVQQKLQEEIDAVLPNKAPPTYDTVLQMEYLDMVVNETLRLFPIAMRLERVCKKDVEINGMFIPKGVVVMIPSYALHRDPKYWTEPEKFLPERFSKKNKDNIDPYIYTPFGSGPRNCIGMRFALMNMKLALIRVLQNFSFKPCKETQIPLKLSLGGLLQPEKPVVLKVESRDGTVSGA
# Voltage-gated inwardly rectifying potassium channel KCNH2, sequence (Q12809 whole entry): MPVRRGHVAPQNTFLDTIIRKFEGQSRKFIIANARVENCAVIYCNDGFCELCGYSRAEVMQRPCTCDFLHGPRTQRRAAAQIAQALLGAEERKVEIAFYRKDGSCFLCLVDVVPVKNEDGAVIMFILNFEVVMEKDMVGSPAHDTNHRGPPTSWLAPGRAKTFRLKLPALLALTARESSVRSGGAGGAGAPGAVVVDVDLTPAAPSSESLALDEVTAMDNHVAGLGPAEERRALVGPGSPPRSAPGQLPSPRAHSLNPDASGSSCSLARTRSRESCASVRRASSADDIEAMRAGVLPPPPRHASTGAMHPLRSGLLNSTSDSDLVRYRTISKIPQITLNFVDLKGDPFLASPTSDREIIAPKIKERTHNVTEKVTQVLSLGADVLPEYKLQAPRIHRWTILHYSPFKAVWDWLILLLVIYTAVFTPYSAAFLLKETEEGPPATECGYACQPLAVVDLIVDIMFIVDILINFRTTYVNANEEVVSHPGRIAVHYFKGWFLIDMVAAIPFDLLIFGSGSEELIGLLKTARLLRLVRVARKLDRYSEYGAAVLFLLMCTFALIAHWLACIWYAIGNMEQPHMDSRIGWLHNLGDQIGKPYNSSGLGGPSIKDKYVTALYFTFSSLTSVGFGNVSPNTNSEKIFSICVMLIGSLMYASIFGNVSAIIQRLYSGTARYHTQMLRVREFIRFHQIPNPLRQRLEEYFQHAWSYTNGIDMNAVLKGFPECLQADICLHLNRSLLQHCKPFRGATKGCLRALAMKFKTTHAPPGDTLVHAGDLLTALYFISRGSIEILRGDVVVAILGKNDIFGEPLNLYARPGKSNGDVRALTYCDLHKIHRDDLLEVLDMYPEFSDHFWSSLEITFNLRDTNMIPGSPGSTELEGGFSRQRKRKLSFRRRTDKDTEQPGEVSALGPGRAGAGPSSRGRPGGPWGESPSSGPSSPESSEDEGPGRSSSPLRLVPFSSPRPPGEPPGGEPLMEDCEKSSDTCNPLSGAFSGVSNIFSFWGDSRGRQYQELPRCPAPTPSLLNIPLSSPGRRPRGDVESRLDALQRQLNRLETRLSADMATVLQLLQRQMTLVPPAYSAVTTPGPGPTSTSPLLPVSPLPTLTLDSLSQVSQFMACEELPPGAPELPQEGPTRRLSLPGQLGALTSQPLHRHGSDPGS
# Cytochrome P450 2D6, sequence (P10635 whole entry): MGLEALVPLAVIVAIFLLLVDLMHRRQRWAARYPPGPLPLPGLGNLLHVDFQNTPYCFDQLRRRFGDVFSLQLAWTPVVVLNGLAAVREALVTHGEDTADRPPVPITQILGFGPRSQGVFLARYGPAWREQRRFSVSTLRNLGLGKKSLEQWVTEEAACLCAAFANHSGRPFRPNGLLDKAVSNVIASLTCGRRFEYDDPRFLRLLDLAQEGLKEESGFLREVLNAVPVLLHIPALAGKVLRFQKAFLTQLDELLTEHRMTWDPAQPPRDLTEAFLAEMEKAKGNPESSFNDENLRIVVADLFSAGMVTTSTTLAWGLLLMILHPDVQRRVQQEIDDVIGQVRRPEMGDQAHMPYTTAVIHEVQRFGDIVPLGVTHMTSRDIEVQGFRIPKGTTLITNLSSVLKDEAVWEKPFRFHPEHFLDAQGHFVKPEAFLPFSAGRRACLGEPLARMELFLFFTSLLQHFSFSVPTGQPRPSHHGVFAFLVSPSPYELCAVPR
# Cytochrome P450 2C9, sequence (P11712 whole entry, the tested form may be a part): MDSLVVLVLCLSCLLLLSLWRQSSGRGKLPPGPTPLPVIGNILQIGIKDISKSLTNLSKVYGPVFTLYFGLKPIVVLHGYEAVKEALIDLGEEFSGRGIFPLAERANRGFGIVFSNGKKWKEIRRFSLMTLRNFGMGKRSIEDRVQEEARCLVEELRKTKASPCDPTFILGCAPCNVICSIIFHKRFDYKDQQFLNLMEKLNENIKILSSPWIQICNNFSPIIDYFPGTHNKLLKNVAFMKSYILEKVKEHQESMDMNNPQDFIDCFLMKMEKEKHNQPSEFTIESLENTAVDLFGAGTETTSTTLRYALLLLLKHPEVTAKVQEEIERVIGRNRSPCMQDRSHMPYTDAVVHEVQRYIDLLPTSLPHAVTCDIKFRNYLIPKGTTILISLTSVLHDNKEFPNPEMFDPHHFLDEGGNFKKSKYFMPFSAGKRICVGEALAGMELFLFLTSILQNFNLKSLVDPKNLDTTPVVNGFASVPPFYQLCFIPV
# Cytochrome P450 2C19, sequence (P33261 whole entry): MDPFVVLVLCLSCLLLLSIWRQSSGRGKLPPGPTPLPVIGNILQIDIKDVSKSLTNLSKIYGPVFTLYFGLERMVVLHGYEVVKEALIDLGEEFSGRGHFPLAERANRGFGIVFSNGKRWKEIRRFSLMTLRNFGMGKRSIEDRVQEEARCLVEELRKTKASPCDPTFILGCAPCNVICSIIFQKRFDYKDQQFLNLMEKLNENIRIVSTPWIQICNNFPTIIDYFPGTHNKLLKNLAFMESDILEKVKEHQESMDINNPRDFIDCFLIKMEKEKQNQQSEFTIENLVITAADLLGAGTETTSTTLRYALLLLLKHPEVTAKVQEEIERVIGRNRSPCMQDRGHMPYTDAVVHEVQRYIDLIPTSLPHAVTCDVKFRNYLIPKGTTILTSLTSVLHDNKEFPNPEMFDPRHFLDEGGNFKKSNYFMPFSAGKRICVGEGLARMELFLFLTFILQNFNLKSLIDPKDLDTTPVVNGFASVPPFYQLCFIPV
smiles,measurement,setting,value
CCCCOC1(c2ccccc2)OC(=O)c2ccccc21 (centres undefined),AC50,Cytochrome P450 3A4 [1],inconclusive
same,AC50,Cytochrome P450 2C9,17.8 µM (inconclusive)
CCN(CC)CCNC(C(=O)Nc1cc(C(F)(F)F)ccc1Cl)c1ccccc1 (centres undefined),IC50,[2],9.32 µM (active)
O=C1C2C3C=CC(CNS(=O)(=O)c4ccccc4)(O3)C2C(=O)N1c1ccc(Cl)cc1 (centres undefined),AC50,[3],7.09 µM (active)
N#Cc1c(N2CCN(C(=O)c3ccccc3Cl)CC2)nc(-c2ccccc2)c2c1CCCC2,EC50,[4],> 60 µM (not active)
same,EC50,[5],2.36 µM (active)
same,AC50,Cytochrome P450 3A4 [1],inconclusive
COc1ccc(-c2cc(C(=O)N(C)CC(=O)Nc3ccccc3Br)c3ccccc3n2)cc1OC,CC50,[6],> 40 µM (active)
CC(C)N1CCN(c2ccc(OCC3COC(Cn4cncn4)(c4ccc(Cl)cc4Cl)O3)cc2)CC1 (centres undefined) [TERCONAZOLE],AC50,[7],21.2 µM (active)
same,AC50,[3],2.19 µM (active)
same,AC50,[8],52.1 µM (active)
Cc1ccc2nsnc2c1S(=O)(=O)N1CCN(CCc2ccccc2)CC1,IC50,[9],11.8 µM (active)
O=C(c1nc2ccc(Cl)cn2c1CN1CCCC1)N1CCc2ccccc2C1,IC50,[2],17.5 µM (active)
CC(=O)OCC1=C(C(=O)O)N2C(=O)[C@@H](NC(=O)Cc3cccs3)[C@H]2SC1 [CEPHALOTHIN],IC50,[2],2.79 µM (active)
Cc1cccc(OCCCC(=O)NNC(=O)c2ccccn2)c1,IC50,[10],> 20 µM (inactive)
O=C(COc1ccc([N+](=O)[O-])cc1)Nc1ccc(C(=O)Nc2ccccc2C(=O)O)cc1,IC50,[2],12.3 µM (active)
CC(SCc1ccccc1)C(=O)N/N=C/c1ccc(OCC(=O)NCc2ccco2)cc1 (centres undefined),IC50,[9],2 µM (active)
CCCN(CCC)CCNC(=O)c1cc2c(=O)n(CC)c3ccccc3c2s1,IC50,[10],> 20 µM (inactive)
COc1ccc(NC(=O)c2sc3ncnc(N4CCN(c5ccccn5)CC4)c3c2C)cc1Cl,AC50,[11],3.19 µM (active)
same,AC50,[7],> 70 µM (inactive)
same,AC50,[3],6.41 µM (active)
same,AC50,HEK293,11.6 µM (active)
same,AC50,[8],4.08 µM (active)
CCc1ccc(C(=O)Nc2cccnc2Oc2ccc(Cl)cc2)cc1,CC50,[6],18.4 µM (active)
Cc1cc2nc(C)c(Cl)c(O)n2n1,IC50,[9],13.2 µM (active)
CCOC(=O)c1c(CN2CCCCC2)oc2ccc(O)cc12,IC50,[10],> 20 µM (inactive)
CCCCCCN(C(=O)CCCCCN1C(=O)NC(c2ccc(C(C)(C)C)cc2)C(C(=O)OCc2ccccc2)=C1C)C(C(=O)NCCCC)c1ccc(OCC(=O)OC)c(C(=O)OC)c1 (centres undefined),CC50,[6],13.2 µM (active)
ClC1=C(Cl)C2(Cl)C3C(Cl)C=CC3C1(Cl)C2(Cl)Cl (centres undefined) [HEPTACHLOR],AC50,[12],31.6 µM (inconclusive)
same,AC50,[13],6.1 µM (active)
Cc1c(C(=O)O)c(O)cc2c1C(=O)c1c(O)c([C@H]3O[C@H](CO)[C@@H](O)[C@H](O)[C@H]3O)c(O)c(O)c1C2=O [CARMINE],AC50,[12],79.4 µM (inconclusive)
COc1ccc2c3c([nH]c2c1)[C@H](CO)N(Cc1ccccc1Cl)CC31CCN(C(C)=O)CC1,AC50,[14],2.8 µM (active)
Clc1ccc(C(Cn2ccnc2)OCc2csc3c(Cl)cccc23)c(Cl)c1 (centres undefined) [SERTACONAZOLE NITRATE],AC50,[3],0.233 µM (active)
same,AC50,INS1,10 µM (active)
same,AC50,[13],1.85 µM (active)
same,CC50,[15],24.4 µM (active)
O=C1CC[C@@]23/C=C/C(=O)NCCCCNCCCNC(=O)/C=C/c4ccc(c2c4)OC3C1 (some centres undefined),AC50,Cytochrome P450 3A4 [16],39.8 µM (inconclusive)
CC[C@H](NC(=O)c1c(C)c(-c2ccccc2)nc2ccccc12)c1ccccc1 [SB-222200],AC50,[12],35.5 µM (inconclusive)
Cc1nc(Nc2ccccc2)c2nc(-c3ccccc3)n(CCCN3CCCCC3C)c2n1 (centres undefined),AC50,Cytochrome P450 3A4 [16],12.6 µM (inconclusive)
O=NN(O)c1ccccc1,AC50,Cytochrome P450 3A4 [16],31.6 µM (inconclusive)
Sc1nnc(-c2ccco2)n1/N=C/C=C/c1ccco1,CC50,Vero,> 40 µM (active)
CCCCOC(=O)COc1ccc(Cl)cc1Cl,AC50,[12],50.1 µM (inconclusive)
O=[N+]([O-])c1ccc(CSc2ncnc3c2ncn3[C@@H]2O[C@H](CO)[C@H](O)[C@H]2O)cc1,AC50,[12],35.5 µM (inconclusive)
COc1ccc(OCC(=O)OCCN(C)C)cc1,IC50,[9],14.5 µM (active)
Cc1noc(C)c1C(=O)N1CCC2(CCN(C(=O)Nc3ccccc3)CC2)CC1,AC50,Cytochrome P450 3A4 [1],inconclusive
same,AC50,Cytochrome P450 2D6,12.6 µM (inconclusive)
O=C1COc2ccc(C(=O)COC(=O)/C=C/c3ccco3)cc2N1,IC50,[2],13.4 µM (active)
COC(=O)C1=C(C)N(Cc2ccccc2)c2c(C(=O)OC)c(C(=O)OC)c(C(=O)OC)c(=O)n2C1c1ccccc1 (centres undefined),AC50,Cytochrome P450 3A4 [16],5.01 µM (inconclusive) and 3.98 µM (inconclusive)
CCC/N=C/c1c(CCC)nn(-c2nc3ccccc3s2)c1O,AC50,Cytochrome P450 3A4 [1],inconclusive
same,AC50,Cytochrome P450 2C19,20 µM (inconclusive)
same,AC50,Cytochrome P450 2D6,25.1 µM (inconclusive)
COc1ccc(C#Cc2ccc([C@H]3[C@H]4CN(C(=O)Nc5ccccc5)CCCCN4[C@H]3CO)cc2)cc1,AC50,[14],4.8 µM (active)
CCCn1nnc(NC(=O)Cc2ccccc2)n1,AC50,Cytochrome P450 3A4 [1],inconclusive
same,AC50,Cytochrome P450 1A2,28.2 µM (inconclusive)
same,AC50,Cytochrome P450 2C9,0.00562 µM (inconclusive)
CCCNC[C@H]1[C@@H](c2ccc(C3=CCCCC3)cc2)[C@@H](CO)N1C(=O)C1CCC1,AC50,[14],4.2 µM (active)
COCCN1CSC(=S)N(Cc2ccco2)C1,AC50,HEK293,0.688 µM (active)
N#Cc1cccc(NC(=O)N2CC3(CCN(C(=O)c4cnccn4)CC3)C2)c1,AC50,Cytochrome P450 3A4 [1],inconclusive
same,AC50,Cytochrome P450 1A2,39.8 µM (inconclusive)
COc1ccc2c3c([nH]c2c1)[C@@H](CO)N(Cc1cc(F)ccc1F)CC31CCN(C(=O)C2CCC2)CC1,AC50,[14],3.77 µM (active)
O=C(CCCCCCCCC(=O)N/N=C/c1ccco1)N/N=C/c1ccco1,IC50,[2],11.5 µM (active)
CCCCNc1nc(C)nc2c1nc(C)n2CCC,AC50,Cytochrome P450 3A4 [16],31.6 µM (inconclusive)
COC(=O)C1(C)C=CC2(CCCCC2)N1C(C)=O (centres undefined),AC50,Cytochrome P450 3A4 [16],15.8 µM (inconclusive)
CC(=O)OC1CC(OC(C)=O)[C@]2(C)C(CC(=O)[C@]3(C)C2CC[C@@]2(C)C(C(=O)O)OC(=O)C4OC423)C1(C)C (some centres undefined),AC50,Cytochrome P450 3A4 [16],39.8 µM (inconclusive)
CCCC(=O)Nc1ccc2c(c1)OC[C@H](C)N(Cc1ccc(-c3ccccn3)cc1)C[C@H](C)[C@H](OC)CN(C)C2=O,AC50,[14],4.66 µM (active)
